# Test results from ChEMBL document CHEMBL3507680, “University of Dundee, Gates Library screen for HepG2 cell viability”.
# Test: Human HepG2 cell viability assay in 384 well format
# Type: toxicity, cell-based
# Set-up: dose 125 nL, time 70.5 hour; cytotoxicity at 70.5 h: concentration not given beside the values
# Conditions: HepG2 cells, read-out: Inhibition
row,SMILES,cytotoxicity at 70.5 h [%]
1,COc1ccc(Nc2nc3c(C)nn(C)c3c(=O)n2C)c(C)c1,0.529
2,CCn1c(NCc2ccccn2)nc2c(C)nn(C)c2c1=O,-3.41
3,CCn1c(NCc2cccnc2)nc2c(C)nn(C)c2c1=O,-4.56
4,CCn1c(NCc2ccc(OC)cc2)nc2c(C)nn(C)c2c1=O,-6.73
5,Cc1nn(C)c2c(=O)n(C(C)C)c(NCC3CCCO3)nc12 (configuration not stated),-9.24
6,CCCn1c(N2CCCC(C)C2)nc2c(C)nn(C)c2c1=O (configuration not stated),-14.3
7,O=C(c1n[nH]cc1Cl)N1CCOCC1,-6.1
8,CC(C)(CO)NCc1nn(Cc2ccccc2)nc1-c1ccccc1,27.2
9,COc1c(C)cnc(CNCC(C)C)c1C,-4.09
10,Cc1cccc(N2CC(c3nnc(N)s3)CC2=O)c1 (configuration not stated),-13.7
11,Nc1nnc(C2CC(=O)N(c3ccccc3)C2)s1 (configuration not stated),-16.4
12,Cc1ccccc1N1CC(c2nnc(N)s2)CC1=O (configuration not stated),3.37
13,Cc1ccc(C2NC(=O)c3cc(C(C)C)sc3N2)cc1 (configuration not stated),-5.82
14,CCn1cc(S(=O)(=O)Nc2nc3c(s2)CCCC3)cn1,-5.28
15,NC(=O)c1c(-c2ccc(Cl)cc2)csc1NC(=O)CCC(=O)O,-4.48
16,NC(=O)c1c(-c2ccc(Cl)cc2Cl)csc1NC(=O)CCC(=O)O,20.5
17,CCCn1c(SCC(N)=O)nnc1-c1csc2c1CCCC2,-9.81
18,CCC(CC)CN1CCN(CC(=O)Nc2ccc3nsnc3c2)CC1,3.54
19,CCC(CC)CN1CCN(CC(=O)Nc2cccc3nsnc23)CC1,-15.1
20,CCn1c(SCC(N)=O)nnc1C(C)NC(=O)c1ccc(Cl)cc1 (configuration not stated),17.8
21,N#Cc1cc(C#N)c(SCC(=O)NCc2ccc(F)cc2)nc1N,27.8
22,O=C1NC2(CCCCC2)c2nnnn2-c2ccc(Br)cc21,-5.57
23,CCN1CCC2(CC1)NC(=O)c1cc(Br)ccc1-n1nnnc12,-5.39
24,CC(C)N1CCC2(CC1)NC(=O)c1cc(Br)ccc1-n1nnnc12,-4.14

row,SMILES,cytotoxicity at 70.5 h [%]
1,Clc1ccc(-n2nnnc2C2(NCc3ccco3)CCCCC2)cc1,-11.2
2,CN1CCN(c2ncc3c(=O)n(Cc4ccco4)ccc3n2)CC1,-9.22
3,CCCC(=O)N1CCC(c2cc3cccnc3c(O)n2)CC1,-5.85
4,Cc1cc(C)nc(C2CCN(c3ccncn3)C2)n1 (configuration not stated),-2.27
5,Cc1c[nH]nc1C1CCN(C(=O)C2CCCC2)C1 (configuration not stated),-5.07
6,c1ccc(N2CCN(Cc3cnc(C4CCCCO4)nc3)CC2)cc1 (configuration not stated),4.6
7,CC(=O)N[C@@H]1CN(C(=O)CC2CC2)C[C@H]1O,-4.46
8,CN(C)c1cc(C2CCCN(C(=O)c3ccc(=O)[nH]n3)C2)ccn1 (configuration not stated),-1.67
9,COc1ccccc1C1Cn2ccnc2CN1Cc1c[nH]nc1C (configuration not stated),-1.22
10,Nc1nccnc1C1CN(Cc2ccc(OCC(=O)O)cc2)CCO1 (configuration not stated),0.531
11,NC(=O)c1ccccc1Oc1cnc(C2CCCN2)cn1 (configuration not stated),-7.87
12,NCC(=O)N1CCC(c2cccc(Oc3ccccc3)n2)CC1,-7.22
13,Nc1nccc(C2CCN(CCO)C2)n1 (configuration not stated),-21.4
14,CN(C)c1nccc(C2CCN(C3CCCCC3O)CC2)n1 (configuration not stated),21.1
15,COCC(=O)N1CCC(c2cc(-c3ccc(N)nc3)cc(C)n2)CC1,19.1
16,CNc1nc(C2CCCN(C(=O)CNC(C)=O)C2)nc2c1CN(C)CC2 (configuration not stated),11.4
17,CCN1CCCC(O)(c2nc(C)c(CCOc3ccccc3F)s2)CC1 (configuration not stated),-8.35
18,Cc1cc(C)n2ncc(CN3C[C@@H](O)[C@H](Oc4ccccc4)C3)c2n1,-13.5
19,Cc1nnc(Nc2cccc(C3CCN(Cc4ncc[nH]4)CC3)n2)s1,18.8
20,Cc1cc(C)nc(N2CCC(c3noc(C)n3)CC2)n1,-7.52
21,CN(C)c1cccc(C2CCCN2S(=O)(=O)c2cn(C)cn2)n1 (configuration not stated),-8.98
22,CC(=O)N1CCC[C@@H](NCc2ccc(F)cc2)[C@@H]1c1ccc(C)s1,-8.87
23,CC(C)Nc1cccc(CC2CCN(S(C)(=O)=O)CC2)n1,19.5
24,Cc1nc(C2CN(Cc3scnc3C)CCO2)cc(N(C)C)n1 (configuration not stated),5.46

row,SMILES,cytotoxicity at 70.5 h [%]
1,CCOC(=O)c1n[nH]cc1-c1cncn1CC(C)n1nc(C)cc1C (configuration not stated),-8.74
2,Cc1c[nH]nc1C1CCN(C(=O)Cn2cccn2)C1 (configuration not stated),-7.3
3,Nc1cc(N2CCOCC(Cc3ccc4[nH]ccc4c3)C2)ncn1 (configuration not stated),-0.988
4,CC(=O)Nc1nc(C2CCCN(C(=O)CN(C)C)C2)cs1 (configuration not stated),-9.21
5,Nc1nccc(C2CCCCN2Cc2cccc(F)c2)n1 (configuration not stated),-2.1
6,CC(=O)N1CCN(CCCOc2ccccc2F)CC(C(N)=O)C1 (configuration not stated),-13.8
7,CN(C)c1cncc(C2CCCN2S(=O)(=O)c2cn(C)cn2)n1 (configuration not stated),14.9
8,CC1(C2CCN(CC(N)=O)CC2)CN(Cc2ccccc2)C(=O)O1 (configuration not stated),-5.3
9,COc1cccc(CC(=O)NC(C)c2nc3cccnc3n2C(C)C)c1 (configuration not stated),-2.69
10,Cc1cnc(-c2nc(NC3CC3)ncc2-c2cc(C)no2)cn1,12
11,CC(=O)N1CCn2c(nnc2C2CCCCN2C(C)=O)C1 (configuration not stated),-4.85
12,O=C(c1cnccn1)N1CCCC(Cc2cncc3ccccc23)C1 (configuration not stated),-6.77
13,Cc1csc(NC(=O)c2cnc(C3CCCN(C)C3)cn2)n1 (configuration not stated),-8.15
14,Cc1ncccc1Oc1cncc(C2CCCN2Cc2cncn2C)n1 (configuration not stated),-2.83
15,CCc1nccn1-c1cncc(C2CCN(C(=O)COC)CC2)n1,-6.24
16,O=C(c1cccnc1)N1CCCC1c1cc[nH]n1 (configuration not stated),23.9
17,CNc1cccc(C2CCCN(Cc3ncc[nH]3)C2)n1 (configuration not stated),-2.87
18,CCc1nccn1-c1nccnc1C1CCCN(C(=O)COC)C1 (configuration not stated),-6.06
19,CCn1cc(CN2CCN(CC(O)c3cc(C)ccc3C)CC2)c(C)n1 (configuration not stated),-1.03
20,CCCNC(=O)c1cc(C2CCCN(Cc3ccccn3)C2)no1 (configuration not stated),21.2
21,O=C(c1cc(C2CCCN(Cc3ccccn3)C2)no1)N1CCCC1 (configuration not stated),-1.56
22,CCn1cc(CN2CCN(CC(O)c3ccc(C)cc3C)CC2)c(C)n1 (configuration not stated),-6.8
23,Cc1cc(-c2cnc(C3CC3)nc2CN(C)C(=O)c2ccccn2)on1,-2.22
24,O=C1NC[C@]2(CC[C@@H](C(=O)N3CCC(O)CC3)CC2)Oc2ccccc21,-4.51

row,SMILES,cytotoxicity at 70.5 h [%]
1,O=C1CN(C(=O)[C@H]2CC[C@]3(CC2)CNC(=O)c2ccccc2O3)CCN1,-8.28
2,Cn1ncc(Cl)c1C(=O)N1CCc2nc3sccc3c(=O)n2CC1,33.8
3,O=C(Cn1c(C(F)F)cc2cccnc21)NC1CCCC1,-2.74
4,CCN1CCCC(NC(=O)CCn2c(C(F)F)cc3cccnc32)C1 (configuration not stated),-4.62
5,CCn1ncc(S(=O)(=O)NC2(CN3CCOCC3)CCCCC2)c1C,-4.76
6,O=C(CCn1c(C(F)F)cc2cccnc21)NC1CCCC1,-6.41
7,Cc1cc(-c2cnc(C)nc2CN(C)C(=O)c2ccccn2)on1,-3.87
8,CC(C)(C)NC(=O)C1(Cc2ccccc2-c2ccncc2)CCOCC1,27.7
9,CC1CCc2n[nH]c(C(=O)NCCCc3ccco3)c2C1 (configuration not stated),-2.37
10,CC1CCc2n[nH]c(C(=O)NCCCc3ccccn3)c2C1 (configuration not stated),-7.91
11,Cc1cc(C)n(CC(C)NC(=O)C2(c3ccc(F)cc3)CC2)n1 (configuration not stated),-10.8
12,CC1(C)COCCN1C(=O)CCc1nc(-c2ccncc2)no1,4.51
13,OC1CCN(c2nc(-c3ccccc3)no2)CC1,-11.6
14,Cc1cc(C)n(CC(C)NC(=O)C(C)(C)c2ccccc2F)n1 (configuration not stated),6.99
15,Cc1nc2cc(F)ccc2cc1C(=O)N1CCN(CC(C)O)CC1 (configuration not stated),-9.69
16,Cc1nc2cc(F)cc(C(=O)N3CCN(CC(C)O)CC3)c2nc1C (configuration not stated),-9.3
17,O=C(c1ccccn1)N1CCN(C(c2ccccc2)C(F)(F)F)CC1 (configuration not stated),11.9
18,O=C(c1cc[nH]n1)N1CCN(C(c2ccccc2)C(F)(F)F)CC1 (configuration not stated),-8.27
19,CCc1ccc(C(NC(=O)CCS(C)(=O)=O)C(C)(C)C)o1 (configuration not stated),-8.82
20,O=C(NC1CCc2nccn2C1)c1ccc(OCC2CC2)nc1 (configuration not stated),-7.7
21,CCSCCC(C)NC(=O)Nc1cccn(C)c1=O (configuration not stated),-10
22,Cc1nc2cc(F)cc(C(=O)N3CCN(CCO)CC3)c2nc1C,-5.18
23,Cc1ccc(S(=O)(=O)N(C)Cc2nccs2)cc1N(C)C,6.76
24,c1ccc(-c2nnc3n2CCN(c2nc(C4CC4)ns2)C3)cc1,-8

row,SMILES,cytotoxicity at 70.5 h [%]
1,CCc1nsc(N2CCn3c(nnc3-c3ccccc3)C2)n1,-4.9
2,N#Cc1cc(F)ccc1NCc1ccc(Cn2cncn2)cc1,-3.41
3,COc1ccc(-c2noc(CCC(=O)N3CCOCC3(C)C)n2)cc1,-3.78
4,CCC(C)(C)NC(=O)c1scnc1Cl,12.7
5,CCc1noc(C)c1C(=O)NCCCC(CC)(CC)C1OCCO1,-5.2
6,CCc1ccc(C(NC(=O)CN(C)S(C)(=O)=O)C(C)(C)C)o1 (configuration not stated),-7.8
7,FC(F)(F)CCN(Cc1ccon1)C1CCC1,-7.34
8,COc1ccccc1CC(C)N(C)CCS(C)(=O)=O (configuration not stated),-14.1
9,CCCC(=O)N(C)Cc1cccc(OC(C)C)c1,9.69
10,CN(Cc1cccc(OC(F)(F)F)c1)C(=O)Cc1ccon1,-13.6
11,CNS(=O)(=O)c1cccc(CNCc2ccsc2)c1,-1.74
12,CCCc1c(C(=O)N2CCN(c3nccc(OC)n3)CC2)cnn1C,-5.72
13,COCC(C)N1CCN(CCc2ccc3c(c2)CCO3)CC1 (configuration not stated),21.8
14,CNC(=O)c1cc(C2CCCN2)n[nH]1 (configuration not stated),-3.32
15,CCc1ncc(CN[C@@H]2CCCN(C(C)=O)[C@H]2c2ccc(C)s2)cn1,-6.59
16,Cc1csc(NC(=O)c2cnc(C3CCCN3)cn2)n1 (configuration not stated),-13.1
17,Cc1csc(NC(=O)c2cnc(C3CCNCC3)cn2)n1,-11.9
18,CN(C)c1ncc(C2Nc3cc(Cl)ccc3C3=NCCCN32)cn1 (configuration not stated),-5.74
19,CC(C)Nc1nc(O)cc(C2CC(=O)N(Cc3ccccn3)C2)n1 (configuration not stated),-5.33
20,CNc1cc(C2CCCN2C(=O)c2ccc(=O)[nH]n2)ccn1 (configuration not stated),-2.78
21,CC(C)Nc1cccc(CC2CCN(C)C2)n1 (configuration not stated),-5.89
